According to US20140228377A1, “METHYLPIPERIDINE DERIVATIVE” (TAISHO PHARMACEUTICAL CO., LTD., priority 2011, published 2014):

Assays:
[1] = target: T1, orexin-2 receptor (hOX2R) (Homo sapiens, UniProt O43614); assay: Orexin antagonistic activity assay (intracellular Ca2+, FDSS) in CHO cells expressing hOX2R; assay type: cell-based; conditions: CHO cells expressing hOX2R; ligand peptide 3 nM; Fluo-3 maximum fluorescence intensity; read-out: IC50 value OX2
T1 construct: expressed in transfected cells; host or cells: Chinese hamster ovary (CHO) cells
T1 sequence (O43614 1-444): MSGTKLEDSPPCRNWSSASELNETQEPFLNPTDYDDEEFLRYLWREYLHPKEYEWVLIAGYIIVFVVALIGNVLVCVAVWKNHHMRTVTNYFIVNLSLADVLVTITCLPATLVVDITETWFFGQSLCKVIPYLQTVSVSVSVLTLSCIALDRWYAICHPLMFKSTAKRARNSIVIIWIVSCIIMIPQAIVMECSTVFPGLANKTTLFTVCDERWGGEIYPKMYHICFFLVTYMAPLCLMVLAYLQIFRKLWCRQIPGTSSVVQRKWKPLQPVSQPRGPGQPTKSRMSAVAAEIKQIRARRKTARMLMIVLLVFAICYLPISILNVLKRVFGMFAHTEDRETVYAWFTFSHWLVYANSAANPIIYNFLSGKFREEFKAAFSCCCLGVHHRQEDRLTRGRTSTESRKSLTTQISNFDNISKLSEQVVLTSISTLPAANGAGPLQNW
Description: (§1) The antagonistic activity of each test compound against human orexin-1 receptor (hOX1R) and orexin-2 receptor (hOX2R) was assayed by a modification of a method described in the literature (Toshikatsu Okumura et al., Biochemical and Biophysical Research Communications 280, 976-981, 2001). Chinese hamster ovary (CHO) cells forced to express hOX1R or hOX2R were inoculated at a density of 20,000 cells/well to a 96-well Black clear bottom plate (Nunc) and cultured at 37° C. for 16 hours under 5% CO2 conditions in a Ham's F-12 medium containing 0.1 mM MEM nonessential amino acids, 0.5 mg/ml G418, and 10% fetal bovine serum (all from Invitrogen Corp.). After removal of the medium, 100 μL of a buffer solution for assay (25 mM HEPES (Dojindo Laboratories), Hanks' balanced salt solution (Invitrogen Corp.), 0.1% bovine serum albumin, 2.5 mM probenecid, and 200 μg/ml Amaranth (all from Sigma-Aldrich Corp.), pH 7.4) containing 0.5 μM Fluo-3 AM ester (Dojindo Laboratories) was added to the cells, which were then incubated at 37° C. for 60 minutes under 5% CO2 conditions. After removal of the buffer solution for assay containing Fluo-3 AM ester, each test compound was dissolved at a concentration of 10 mM in dimethyl sulfoxide and diluted with a buffer solution for assay. Then, 150 μL of the solution was added to the cells, which were then incubated for 30 minutes.
(§2) A ligand peptide (Pyr-[…]NH2; Peptide Institute, Inc.) derived from human orexin-A by the substitution of two amino acids was diluted with a buffer solution for assay to final concentrations of 300 pM for hOX1R and 3 nM for hOX2R. Reaction was initiated by the addition of 50 μL of this ligand solution. The fluorescence intensity of the reaction was measured in each well every second for 3 minutes using Functional Drug Screening System (FDSS; manufactured by Hamamatsu Photonics K.K.), and the maximum fluorescence intensity was used as an index for intracellular Ca^2+ concentration to determine antagonistic activity. The antagonistic activity of the test compound was calculated with fluorescence intensity from a well supplemented with only a diluting buffer solution as 100% and fluorescence intensity from a well supplemented with a buffer solution free from the ligand and the compound as 0%. The 50% inhibitory concentration (IC50 value) was determined on the basis of fluorescence intensity derived from the test compound added at varying concentrations.

[2] = target: T2, human orexin-1 receptor (hOX1R) (Homo sapiens, UniProt O43613); assay: Orexin antagonistic activity assay (intracellular Ca2+, FDSS) in CHO cells expressing hOX1R; assay type: cell-based; conditions: CHO cells expressing hOX1R; ligand peptide 300 pM; Fluo-3 maximum fluorescence intensity; read-out: IC50 value OX1
T2 construct: expressed in transfected cells; host or cells: Chinese hamster ovary (CHO) cells
T2 sequence (O43613 1-425): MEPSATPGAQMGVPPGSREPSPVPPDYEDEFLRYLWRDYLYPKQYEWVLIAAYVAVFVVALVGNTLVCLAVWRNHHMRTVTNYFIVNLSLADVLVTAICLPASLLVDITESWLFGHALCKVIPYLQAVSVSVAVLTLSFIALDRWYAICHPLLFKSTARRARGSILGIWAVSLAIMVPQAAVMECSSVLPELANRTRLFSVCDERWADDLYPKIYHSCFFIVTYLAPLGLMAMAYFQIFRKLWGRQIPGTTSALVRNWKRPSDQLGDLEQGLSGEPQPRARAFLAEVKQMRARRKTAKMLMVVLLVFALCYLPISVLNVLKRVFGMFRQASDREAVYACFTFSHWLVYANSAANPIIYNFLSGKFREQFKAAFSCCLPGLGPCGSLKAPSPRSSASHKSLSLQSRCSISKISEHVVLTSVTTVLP
Description: as §1, §2

## C[C@@H]1CC[C@@H](c2nc3cc(F)ccc3o2)CN1C(=O)c1ccc(F)cc1-n1nccn1 [Example 34, [(2R,5R)-5-(5-Fluoro-1,3-benzoxazol-2-yl)-2-methylpiperidin-1-yl][4-fluoro-2-(2H-1,2,3-triazol-2-yl)phenyl]methanone]
[1]
  IC50: 0.0084 µM
[2]
  IC50: 0.212 µM

## C[C@@H]1CC[C@@H](c2nc3cc(F)ccc3o2)CN1C(=O)c1c(F)cccc1-n1nccn1 [Example 35, [(2R,5R)-5-(5-Fluoro-1,3-benzoxazol-2-yl)-2-methylpiperidin-1-yl][2-fluoro-6-(2H-1,2,3-triazol-2-yl)phenyl]methanone]
[1]
  IC50: 0.005 µM
[2]
  IC50: 0.0911 µM

## Cc1ccc(-n2nccn2)c(C(=O)N2C[C@H](c3nc4cc(C(F)(F)F)ccc4o3)CC[C@H]2C)c1 [Example 36, [5-Methyl-2-(2H-1,2,3-triazol-2-yl)phenyl][(2R,5R)-2-methyl-5-[5-(trifluoromethyl)-1,3-benzoxazol-2-yl]piperidin-1-yl]methanone]
[1]
  IC50: 0.0025 µM
[2]
  IC50: 0.0089 µM

## Cc1ccc(-c2ncccn2)c(C(=O)N2C[C@H](c3nc4cc(C(F)(F)F)ccc4o3)CC[C@H]2C)c1 [Example 37, [5-Methyl-2-(pyrimidin-2-yl)phenyl]{(2R,5R)-2-methyl-5-[5-(trifluoromethyl)-1,3-benzoxazol-2-yl]piperidin-1-yl}methanone]
[1]
  IC50: 0.0093 µM
[2]
  IC50: 0.0365 µM

## C[C@@H]1CC[C@@H](c2nc3cc(C(F)(F)F)ccc3o2)CN1C(=O)c1cc(F)ccc1-c1ncccn1 [Example 38, [5-Fluoro-2-(pyrimidin-2-yl)phenyl]{(2R,5R)-2-methyl-5-[5-(trifluoromethyl)-1,3-benzoxazol-2-yl]piperidin-1-yl}methanone]
[1]
  IC50: 0.0786 µM
[2]
  IC50: 0.814 µM

## C[C@@H]1CC[C@@H](c2nc3cc(C(F)(F)F)ccc3o2)CN1C(=O)c1cc(Cl)ccc1-c1ncccn1 [Example 39, [5-Chloro-2-(pyrimidin-2-yl)phenyl]{(2R,5R)-2-methyl-5-[5-(trifluoromethyl)-1,3-benzoxazol-2-yl]piperidin-1-yl}methanone]
[1]
  IC50: 0.0263 µM
[2]
  IC50: 0.123 µM

## Cc1ccc(-n2nccn2)c(C(=O)N2C[C@H](c3nc4cc(C(F)(F)F)ccc4o3)CC[C@H]2C)n1 [Example 40, [6-Methyl-3-(2H-1,2,3-triazol-2-yl)pyridin-2-yl]{(2R,5R)-2-methyl-5-[5-(trifluoromethyl)-1,3-benzoxazol-2-yl]piperidin-1-yl}methanone]
[1]
  IC50: 0.1 µM
[2]
  IC50: 0.157 µM

## Cc1ccc(-c2ncccn2)c(C(=O)N2C[C@H](c3nc4cc(OC(F)(F)F)ccc4o3)CC[C@H]2C)c1 [Example 41, [5-Methyl-2-(pyrimidin-2-yl)phenyl]{(2R,5R)-2-methyl-5-[5-(trifluoromethoxy)-1,3-benzoxazol-2-yl]piperidin-1-yl}methanone]
[1]
  IC50: 0.0451 µM
[2]
  IC50: 0.177 µM

## Cc1ccc(-n2nccn2)c(C(=O)N2C[C@H](c3nc4cc(OC(F)(F)F)ccc4o3)CC[C@H]2C)n1 [Example 42, [6-Methyl-3-(2H-1,2,3-triazol-2-yl)pyridin-2-yl]{(2R,5R)-2-methyl-5-[5-(trifluoromethoxy)-1,3-benzoxazol-2-yl]piperidin-1-yl}methanone]
[1]
  IC50: 0.919 µM
[2]
  IC50: 1.04 µM

## Cc1ccc(-n2nccn2)c(C(=O)N2C[C@H](c3nc4ccc(Cl)cc4o3)CC[C@H]2C)c1 [Example 43, [(2R,5R)-5-(6-Chloro-1,3-benzoxazol-2-yl)-2-methylpiperidin-1-yl][5-methyl-2-(2H-1,2,3-triazol-2-yl)phenyl]methanone]
[1]
  IC50: 0.0098 µM
[2]
  IC50: 0.0041 µM

## Cc1ccc(-c2ncccn2)c(C(=O)N2C[C@H](c3nc4ccc(Cl)cc4o3)CC[C@H]2C)c1 [Example 44, [(2R,5R)-5-(6-Chloro-1,3-benzoxazol-2-yl)-2-methylpiperidin-1-yl][5-methyl-2-(pyrimidin-2-yl)phenyl]methanone]
[1]
  IC50: 0.0231 µM
[2]
  IC50: 0.0091 µM

## C[C@@H]1CC[C@@H](c2nc3ccc(Cl)cc3o2)CN1C(=O)c1cc(F)ccc1-c1ncccn1 [Example 45, [(2R,5R)-5-(6-Chloro-1,3-benzoxazol-2-yl)-2-methylpiperidin-1-yl][5-fluoro-2-(pyrimidin-2-yl)phenyl]methanone]
[1]
  IC50: 0.0122 µM
[2]
  IC50: 0.0772 µM

## Cc1ccc(-n2nccn2)c(C(=O)N2C[C@H](c3nc4ccc(Cl)cc4o3)CC[C@H]2C)n1 [Example 46, [(2R,5R)-5-(6-Chloro-1,3-benzoxazol-2-yl)-2-methylpiperidin-1-yl][6-methyl-3-(2H-1,2,3-triazol-2-yl)pyridin-2-yl]methanone]
[1]
  IC50: 0.07 µM
[2]
  IC50: 0.01 µM

## C[C@@H]1CC[C@@H](c2nc3ccc(Cl)cc3o2)CN1C(=O)c1ccc(F)cc1-n1nccn1 [Example 47, [(2R,5R)-5-(6-Chloro-1,3-benzoxazol-2-yl)-2-methylpiperidin-1-yl][4-fluoro-2-(2H-1,2,3-triazol-2-yl)phenyl]methanone]
[1]
  IC50: 0.0166 µM
[2]
  IC50: 0.0586 µM

## C[C@@H]1CC[C@@H](c2nc3ccc(Cl)cc3o2)CN1C(=O)c1c(F)cccc1-n1nccn1 [Example 48, [(2R,5R)-5-(6-Chloro-1,3-benzoxazol-2-yl)-2-methylpiperidin-1-yl][2-fluoro-6-(2H-1,2,3-triazol-2-yl)phenyl]methanone]
[1]
  IC50: 0.0124 µM
[2]
  IC50: 0.0588 µM

## C[C@@H]1CC[C@@H](c2nc3ccc(F)cc3o2)CN1C(=O)c1cc(Cl)ccc1-c1ncccn1 [Example 49, [5-Chloro-2-(pyrimidin-2-yl)phenyl][(2R,5R)-5-(6-fluoro-1,3-benzoxazol-2-yl)-2-methylpiperidin-1-yl]methanone]
[1]
  IC50: 0.0931 µM
[2]
  IC50: 0.103 µM

## Cc1ccc(-n2nccn2)c(C(=O)N2C[C@H](c3nc4cc(F)c(F)cc4o3)CC[C@H]2C)c1 [Example 50, [(2R,5R)-5-(5,6-Difluoro-1,3-benzoxazol-2-yl)-2-methylpiperidin-1-yl][5-methyl-2-(2H-1,2,3-triazol-2-yl)phenyl]methanone]
[1]
  IC50: 0.0086 µM
[2]
  IC50: 0.0098 µM

## Cc1ccc(-c2ncccn2)c(C(=O)N2C[C@H](c3nc4cc(F)c(F)cc4o3)CC[C@H]2C)c1 [Example 51, [(2R,5R)-5-(5,6-Difluoro-1,3-benzoxazol-2-yl)-2-methylpiperidin-1-yl][5-methyl-2-(pyrimidin-2-yl)phenyl]methanone]
[1]
  IC50: 0.0073 µM
[2]
  IC50: 0.0135 µM

## C[C@@H]1CC[C@@H](c2nc3cc(F)c(F)cc3o2)CN1C(=O)c1cc(F)ccc1-c1ncccn1 [Example 52, [(2R,5R)-5-(5,6-Difluoro-1,3-benzoxazol-2-yl)-2-methylpiperidin-1-yl][5-fluoro-2-(pyrimidin-2-yl)phenyl]methanone]
[1]
  IC50: 0.011 µM
[2]
  IC50: 0.0829 µM

## C[C@@H]1CC[C@@H](c2nc3cc(F)c(F)cc3o2)CN1C(=O)c1cc(Cl)ccc1-c1ncccn1 [Example 53, [5-Chloro-2-(pyrimidin-2-yl)phenyl][(2R,5R)-5-(5,6-difluoro-1,3-benzoxazol-2-yl)-2-methylpiperidin-1-yl]methanone]
[1]
  IC50: 0.0132 µM
[2]
  IC50: 0.0563 µM
